Experimental data published in US7531500B2, “Preventing airway mucus production by administration of EGF-R antagonists” (The Regents of the University of California, priority 1998, dated 2009).

Assays:
NCI-H292 cells [1] = experiment: Alcian blue/PAS staining of NCI-H292 cells for mucin glycoproteins; type: cell-based, human; details: TNFα 20 ng/ml; EGF, TGFα each 25 ng/ml
Protocol: (§1) Cell culture. A human pulmonary mucoepidermoid carcinoma cell line, NCI-H292 cells, were grown in RPMI11640 medium containing 10% fetal bovine serum, penicillin (100 U/ml), streptomycin (100 μg/ml) at 37° C. in a humidified 5% CO2 water-jacketed incubator. […] In inhibition studies with an EGF-R tyrosine kinase inhibitor, BIBX1522 (10 μg/ml, generously provided by Boehringer Ingelheim Inc., Ingelheim, Germany), cells were pretreated with BIBX1522 30 min before adding growth factors. After incubation, cells grown in a T-75 flask were used for total RNA extraction or protein extraction, and 8-chamber slides were used for Alcian blue/PAS-staining to visualize mucins.

NCI-H292 cells [2] = experiment: Northern analysis for MUC5 gene expression in NCI-H292 cells; type: cell-based, human; details: EGF or TGFα 25 ng/ml, TNFα 20 ng/ml; 12 h, 24 h
Protocol: as §1

pathogen-free rats = experiment: Goblet cell production in pathogen-free rats after tracheal instillation of TNFα and EGF-R ligands; type: in vivo, rat; details: intratracheal 600 ng, alone
Protocol: Healthy rats. Rats were anesthetized with methohexital sodium (Brevital sodium, 50 mg/kg, i.p.; Eli Lilly & Co., Indianapolis, Ind.) and allowed to breathe spontaneously. […] In each study, sterile PBS (100 μl) was instilled into the trachea as control. […] Rats were pretreated with BIBX1522 (3, 10 or 30 mg/kg, i.p.), 1 h before and 24 h after instillation of TGFα. The trachea and lungs were removed for examination 48 h after the instillation of TGFα.
Tissue preparation. At preselected times during anesthesia, the systemic circulation was perfused with 1% paraformaldehyde in DEPC-treated PBS at a pressure of 120 mmHg. The trachea was then removed and placed in 4% paraformaldehyde for 24 h. After fixation, trachea and lungs were embedded in either JB-4 plus monomer solution A for cell analysis or O.C.T. compound (Sakura Finetek U.S.A., Inc., Torrance, Calif.) for immunohistochemistry and in situ hybridization. The embedded tissues were cut as cross sections ([…] thick) and placed on slides.
Cell analysis. We counted the total number of epithelial cells by counting epithelial cell nuclei over 2 mm of the basal lamina with an oil immersion objective lens (×1000 magnification). The linear length of the basal lamina under each analyzed region of epithelium was determined by tracing the contour of the digitized image of the basal lamina. After instillation of stimuli, “developing” goblet cells form. These cells have Alcian blue/PAS-positive granules, but the size of granules is small, and the number of cytoplasmic granules is few. We call these “developing” goblet cells “pre-goblet cells”, a stage before cells become mature goblet cells. Goblet cells are tall, cuboidal, goblet to low columnar in shape, with abundant Alcian blue/PAS-stained granules filling most of the cytoplasm between the nucleus and the luminal surface. Pre-goblet cells are defined as cells with smaller mucus-stained areas (<1/3 height in epithelium from basement membrane to luminal surface) or with sparsely and lightly Alcian blue/PAS-stained, small granules. Ciliated cells are recognized by their ciliated borders, lightly stained cytoplasm, and large round nuclei. Non-granulated secretory cells are columnar in shape and extend from the lumen to the basal lamina. The cytoplasm stains light pink color, and a few tiny PAS-positive and Alcian blue-negative granules are observed in the cytoplasm. Basal cells are small flattened cells with a large nucleus, located just above the basal lamina but not reaching the airway lumen.
Quantification of goblet cell production. Goblet cell production, was determined by the volume density of Alcian blue/PAS-stained mucosubstances on the mucosal surface epithelium using a semi-automatic imaging system described elsewhere (Weber et al. (1984) Science 224:294-297). We measured the Alcian blue/PAS-positive stained area and the total epithelial area and expressed the data as the percentage of the total area stained by Alcian blue-PAS. The analysis was performed with the public domain NIH Image program (developed at the U.S. National Institute of Health and available from the Internet by anonymous FTP from zippy.nimh.gov or on floppy disk from the National Technical Information Service, Springfield, Va., part number PB95-500195GEI).
Immunohistochemical localization of EGF-R in rat epithelium. The localization of EGF-R was examined using immunchistochemical staining with an antibody to EGF-R (Calbiochem, San Diego, Calif.) in frozen sections of rat trachea. After perfusion with 1% paraformaldehyde in PBS, tissues were placed in 4% paraformaldehyde in PBS for 1 h and then removed in 30% sucrose for cryoprotection overnight. Tracheas were embedded in O.C.T. compound (Sakura Finetek U.S.A., Inc., Torrance, Calif.) and frozen. Frozen sections (5 μm) were cut and placed on glass slides (Superfrost Plus, Fisher Scientific, Pittsburgh, Pa.). Immunostaining was performed similarly to the in vitro studies.

NCI-H292 cells [3] = experiment: Immunoassay of MUC5AC protein in NCI-H292 cells (Example 2); type: cell-based, human
Protocol: Cell Culture. NCI-H292 cells, a human pulmonary mucoepidermoid carcinoma cell line, were grown in RPMI 1640 medium containing 10% fetal bovine serum, penicillin (100 U/ml), streptomycin (100 μg/ml) and Hepes (25 mM) at 37° C. in a humidified 5% CO2, water-jacketed incubator. Either 6-well culture plates or 8-chamber slides were used to culture the cells. […] The cells were then washed and incubated with fresh medium alone. Experiments were terminated at preselected times (for mRNA, 6 h and 12 h; for protein, 24 h). As controls, cells were incubated with medium alone for same time periods. […] In inhibition studies with blocking antibodies to EGF-R ligands, the supernatants were pretreated with anti-TGFα antibody (Calbiochem) or anti-EGF antibody for 30 min and then added to NCI-H292 cells. The role of oxygen free radicals was examined using scavengers of oxygen free radical DMSO (1%, Sigma), 1,3-dimethyl-2-thiourea (DMTU, 50 mM, Sigma), or superoxide dismutase (SOD, 300 U/ml, Sigma).
Preparation of Cigarette Smoke Solution. Research cigarettes (code2R1, produced for the University of Kentucky Tobacco and Health Research Foundation) were used in the study. Cigarette smoke solution was prepared as previously described (Dusser et al. (1989) J. Clin. Invest. 84:900-906). In brief, cigarette smoke was withdrawn into a polypropylene syringe (35 ml) at a rate of one puff/min (10 times) and bubbled slowly into 20 ml of RPM11640 containing 50 mM Hepes buffer. The smoke solution was then titrated to pH 7,4 and used immediately after preparation.
Immunoassay of MUC5AC Protein. MUC5AC protein was measured as described above. In brief, cell lysates were prepared with PBS at multiple dilutions, and 50 μl of each sample was incubated with bicarbonate-carbonate buffer (50 μl) at 40° C. in a 96-well plate (Maxisorp Nunc, Fisher Scientific, Santa Clara, Calif.), until dry. Plates were washed three times with PBS and blocked with 2% BSA (fraction V, Sigma) for 1 h at room temperature. Plates were again washed three times with PBS and then incubated with 50 μl of mouse monoclonal MUC5AC antibody (1:100) that was diluted with PBS containing 0.05% Tween 20. After 1 h, the wells were washed three times with PBS, and 100 μl horseradish peroxidase-goat anti-mouse IgG conjugate (1:10,000, Sigma) was dispensed into each well. After 1 h, plates were washed three times with PBS. Color reaction was developed with TMB peroxidase solution (Kirkegaard & Perry Laboratories, Gaithersburg, Md.) and stopped with 2N H2SO4. Absorbance was read at 450 nm.

NCI-H292 cells [4] = experiment: In situ hybridization for MUC5AC gene in NCI-H292 cells (Example 2); type: cell-based, human; details: within 12 h
Protocol: Cell Culture. NCI-H292 cells, a human pulmonary mucoepidermoid carcinoma cell line, were grown in RPMI 1640 medium containing 10% fetal bovine serum, penicillin (100 U/ml), streptomycin (100 μg/ml) and Hepes (25 mM) at 37° C. in a humidified 5% CO2, water-jacketed incubator. Either 6-well culture plates or 8-chamber slides were used to culture the cells. When confluent, cells were incubated for 1 h with neutrophils (10^6 cells/ml) alone, TNFα alone (recombinant human TNFα, 20 ng/ml, Genzyme, Cambridge, Mass.), IL-8 (recombinant human IL-8, 10^−8 M, Genzyme) alone, fMLP (10^−8 M, Sigma, St. Louis, Mo.) alone, TNFα plus neutrophils, IL-8 plus neutrophils, fMLP plus neutrophils, hydrogen peroxide (H2O2, 200 μM), cigarette smoke solution or TGFα (recombinant human TGFα, 0.1-25 ng/ml, Calbiochem, San Diego, Calif.). The cells were then washed and incubated with fresh medium alone. Experiments were terminated at preselected times (for mRNA, 6 h and 12 h; for protein, 24 h). As controls, cells were incubated with medium alone for same time periods. […] NCI-H292 cells were incubated for 1 h with either neutrophils that had been incubated with TNFα (20 ng/ml) for 1 h and then washed with sterile PBS to avoid contamination with the supernatant (e.g., molecules released from neutrophils), or the NCI-H292 cells were incubated with supernatant only. […]

EGFR = EGFR (Homo sapiens, UniProt P00533); experiment: Immunoprecipitation of EGF-R and immunoblotting for tyrosine phosphorylation in NCI-H292 cells; type: cell-based; parameters: These cells express EGF-R constitutively; endogenous in cells; host or cells: NCI-H292 (human pulmonary mucoepidermoid carcinoma); details: within 15 min of stimulus
Protocol: Immunoprecipitation for EGF-R Protein and Immunoblotting for Tyrosine Phosphorylation. Cells were serum-starved for 24 h and then stimulated with TGFα, H2O2, or the supernatant of activated neutrophils for 15 min. After stimulation, cells were lysed and incubated for 30 min in an orbital shaker at 4° C. To remove insoluble material, cell lysates were centrifuged at 14,000 rpm for 5 min at 4° C. Aliquots of supernatants containing equal amounts of protein were immunoprecipitated with anti-EGF receptor antibody (polyclonal, Ab4, Calbiochem) and 20 μl of protein A-agarose (Santa Cruz) for 2 h at 4° C. Precipitates were washed three times with 0.5 ml of lysis buffer, suspended in SDS sample buffer, and boiled for 5 min. Proteins were separated by SDS-PAGE in 8.0% acrylamide gel. The resulting gel was equilibrated in the transfer buffer: 25 mM Tris-HCl, 192 mM glycine, 20% (vol/vol) methanol, pH 8.3. The proteins were then transferred electrophoretically to nitrocellulose membranes (0.22 μm), blocked with 5% fat-free skimmed milk in PBS containing 0.05% Tween 20 overnight and then incubated with monoclonal anti-phosphotyrosine antibody (1:100,Santa Cruz) for 1 h. Bound antibody was visualized according to a standard protocol for the avidin-biotin-alkaline phosphatase complex method (ABC kit, Vector Laboratories).

EGFR, sequence (P00533 25-1210): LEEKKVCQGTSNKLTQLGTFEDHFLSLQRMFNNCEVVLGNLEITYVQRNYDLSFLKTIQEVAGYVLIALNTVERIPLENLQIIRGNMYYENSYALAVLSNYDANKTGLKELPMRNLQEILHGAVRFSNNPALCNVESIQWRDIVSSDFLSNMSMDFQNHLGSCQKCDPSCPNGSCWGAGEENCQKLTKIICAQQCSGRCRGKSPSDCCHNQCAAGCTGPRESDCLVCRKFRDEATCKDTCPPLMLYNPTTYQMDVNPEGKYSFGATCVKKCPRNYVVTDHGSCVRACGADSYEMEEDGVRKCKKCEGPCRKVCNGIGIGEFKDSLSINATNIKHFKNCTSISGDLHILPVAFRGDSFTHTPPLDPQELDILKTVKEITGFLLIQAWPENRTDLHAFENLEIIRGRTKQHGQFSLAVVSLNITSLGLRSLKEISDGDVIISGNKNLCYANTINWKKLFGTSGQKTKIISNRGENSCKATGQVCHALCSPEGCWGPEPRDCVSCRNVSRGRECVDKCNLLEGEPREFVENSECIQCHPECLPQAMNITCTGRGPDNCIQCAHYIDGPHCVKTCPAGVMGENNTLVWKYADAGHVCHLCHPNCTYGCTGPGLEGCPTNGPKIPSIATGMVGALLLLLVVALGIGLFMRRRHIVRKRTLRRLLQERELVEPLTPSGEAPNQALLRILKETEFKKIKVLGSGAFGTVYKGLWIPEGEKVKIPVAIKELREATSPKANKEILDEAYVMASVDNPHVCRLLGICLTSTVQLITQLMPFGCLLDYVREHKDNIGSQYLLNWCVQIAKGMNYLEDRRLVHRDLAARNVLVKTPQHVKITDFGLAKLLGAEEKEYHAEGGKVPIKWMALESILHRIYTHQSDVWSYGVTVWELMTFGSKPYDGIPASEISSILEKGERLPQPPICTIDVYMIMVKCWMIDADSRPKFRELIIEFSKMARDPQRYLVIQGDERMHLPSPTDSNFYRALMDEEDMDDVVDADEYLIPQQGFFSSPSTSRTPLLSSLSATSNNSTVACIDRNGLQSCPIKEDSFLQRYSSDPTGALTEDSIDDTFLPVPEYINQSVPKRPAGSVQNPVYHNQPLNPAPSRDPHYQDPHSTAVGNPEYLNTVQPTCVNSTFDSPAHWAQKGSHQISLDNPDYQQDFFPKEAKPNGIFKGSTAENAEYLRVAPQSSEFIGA

Compound	PAS-positive staining on incubation with mediator (NCI-H292 cells [1])	MUC5 gene expression on incubation with mediator (NCI-H292 cells [2])	epithelial production of mucous glycoconjugates (pathogen-free rats)	maximum response in MUC5AC synthesis relative to the response to TGFα (NCI-H292 cells [3])	MUC5AC synthesis in NCI-H292 cells, stimulus alone (NCI-H292 cells [3]; H2O2 200 μM, cigarette smoke solution)	MUC5AC gene expression (NCI-H292 cells [4])	EGF-R-specific tyrosine phosphorylation (EGFR)
EGF: recombinant human epidermal growth factor (Genzyme)	increased PAS-positive staining	clearly expressed at 24 h	had no effect				
OO [H2O2, hydrogen peroxide]				half	caused MUC5AC synthesis	up-regulated	induced EGF-R-specific tyrosine phosphorylation
